Test results taken from patent publication US4442044A, “Process for preparing monoesters and diesters of N-alkyl substituted amino methyl phosphonic acid” (priority 1983, dated 1984).

What was measured:
Assay type in all cases: in vivo
Velvetleaf [1] = experiment: pre-emergent herbicidal activity, soil incorporation; conditions: Table III, 2 WAT, 11.2 kg/h
How it was run: (§1)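 Soil-incorporation pre-emergence test. Covering soil weighed and mixed with known amount of active ingredient, layered over pressed-in seeds/propagules; bottom watering, wet sand bench, ~2 wk. Read-out: emergence count vs untreated control, scored as index of average percent control.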

Yellow Nutsedge [2] = experiment: as above; conditions: Table III, 2 WAT, 11.2 kg/h
How it was run: as §1

Smartweed [3] = experiment: as above; conditions: Table III, 2 WAT, 11.2 kg/h
How it was run: as §1

Barnyardgrass [4] = experiment: as above; conditions: Table III, 2 WAT, 11.2 kg/h
How it was run: as §1

Morningglory [5] = experiment: as above; conditions: Table III, 2 WAT, 11.2 kg/h
How it was run: as §1

Quackgrass [6] = experiment: as above; conditions: Table III, 2 WAT, 11.2 kg/h
How it was run: as §1

Johnsongrass [7] = experiment: as above; conditions: Table III, 2 WAT, 11.2 kg/h
How it was run: as §1

Cocklebur [8] = experiment: as above; conditions: Table III, 2 WAT, 11.2 kg/h
How it was run: as §1

Canada Thistle [9] = experiment: as above; conditions: Table III, 2 WAT, 11.2 kg/h
How it was run: as §1

Downy Brome [10] = experiment: as above; conditions: Table III, 2 WAT, 11.2 kg/h
How it was run: as §1

Lambsquarters [11] = experiment: as above; conditions: Table III, 2 WAT, 11.2 kg/h
How it was run: as §1

Velvetleaf [12] = experiment: post-emergent herbicidal activity, greenhouse; conditions: 4 WAT
How it was run: (§2)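 Seeds or propagules sown in compacted top soil, grown 2–3 weeks in greenhouse, then sprayed with compound solution/suspension containing ~0.4% emulsifier at tabulated rates. Injury scored visually versus untreated controls at ~2 and 4 weeks after treatment, expressed as a herbicidal activity index.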

Panicum Spp = experiment: post-emergent herbicidal activity, greenhouse; conditions: Table II, 4 WAT
How it was run: as §2

Soybean = experiment: post-emergent herbicidal activity, greenhouse; conditions: Table II, 4 WAT
How it was run: as §2

Yellow Nutsedge [13] = experiment: post-emergent herbicidal activity, greenhouse; conditions: Table I, 4 WAT
How it was run: as §2

Crabgrass = experiment: post-emergent herbicidal activity, greenhouse; conditions: Table II, 4 WAT
How it was run: as §2

Rice = experiment: post-emergent herbicidal activity, greenhouse; conditions: Table II, 4 WAT
How it was run: as §2

Smartweed [14] = experiment: post-emergent herbicidal activity, greenhouse; conditions: 4 WAT
How it was run: as §2

Barnyardgrass [15] = experiment: post-emergent herbicidal activity, greenhouse; conditions: 4 WAT
How it was run: as §2

Morningglory [16] = experiment: post-emergent herbicidal activity, greenhouse; conditions: 4 WAT
How it was run: as §2

Quackgrass [17] = experiment: post-emergent herbicidal activity, greenhouse; conditions: Table I, 4 WAT
How it was run: as §2

Johnsongrass [18] = experiment: post-emergent herbicidal activity, greenhouse; conditions: Table I, 4 WAT
How it was run: as §2

Sugar Beet = experiment: post-emergent herbicidal activity, greenhouse; conditions: Table II, 4 WAT
How it was run: as §2

Sorghum = experiment: post-emergent herbicidal activity, greenhouse; conditions: Table II, 4 WAT
How it was run: as §2

Cocklebur [19] = experiment: post-emergent herbicidal activity, greenhouse; conditions: 4 WAT
How it was run: as §2

Wheat = experiment: post-emergent herbicidal activity, greenhouse; conditions: Table II, 4 WAT
How it was run: as §2

Hemp Sesbania = experiment: post-emergent herbicidal activity, greenhouse; conditions: Table II, 4 WAT
How it was run: as §2

Canada Thistle [20] = experiment: post-emergent herbicidal activity, greenhouse; conditions: Table I, 4 WAT
How it was run: as §2

Downy Brome [21] = experiment: post-emergent herbicidal activity, greenhouse; conditions: 4 WAT
How it was run: as §2

Wild Buckwheat = experiment: post-emergent herbicidal activity, greenhouse; conditions: Table II, 4 WAT
How it was run: as §2

Lambsquarters [22] = experiment: post-emergent herbicidal activity, greenhouse; conditions: 4 WAT
How it was run: as §2

## CCCCCOC(=O)CNCP(=O)(O)OC(C)C#N (stereo not drawn) [Example 6, glycine, N-[[(1-cyanoethoxy)hydroxy-phosphinyl]methyl]pentyl ester, hemihydrate]
Velvetleaf [1]
  pre-emergent herbicidal activity index: 0 (1-24% control)
Yellow Nutsedge [2]
  pre-emergent herbicidal activity index: 0 (1-24% control)
Smartweed [3]
  pre-emergent herbicidal activity index: 0 (1-24% control)
Barnyardgrass [4]
  pre-emergent herbicidal activity index: 0 (1-24% control)
Morningglory [5]
  pre-emergent herbicidal activity index: 0 (1-24% control)
Quackgrass [6]
  pre-emergent herbicidal activity index: 0 (1-24% control)
Johnsongrass [7]
  pre-emergent herbicidal activity index: 0 (1-24% control)
Cocklebur [8]
  pre-emergent herbicidal activity index: 0 (1-24% control)
Canada Thistle [9]
  pre-emergent herbicidal activity index: 0 (1-24% control)
Downy Brome [10]
  pre-emergent herbicidal activity index: 0 (1-24% control)
Lambsquarters [11]
  pre-emergent herbicidal activity index: 0 (1-24% control)
Velvetleaf [12]; Table I, 5.6 kg/h
  post-emergent herbicidal activity index: 3 (75-99% control)
Velvetleaf [12]; Table I, 11.2 kg/h
  post-emergent herbicidal activity index: 3 (75-99% control)
Velvetleaf [12]; Table II, 0.28 kg/h
  post-emergent herbicidal activity index: 1 (25-49% control)
Velvetleaf [12]; Table II, 1.12 kg/h
  post-emergent herbicidal activity index: 2 (50-74% control)
Velvetleaf [12]; Table II, 5.6 kg/h
  post-emergent herbicidal activity index: 3 (75-99% control)
Panicum Spp; 0.28 kg/h
  post-emergent herbicidal activity index: 4 (100% control)
Panicum Spp; 1.12 kg/h
  post-emergent herbicidal activity index: 4 (100% control)
Panicum Spp; 5.6 kg/h
  post-emergent herbicidal activity index: 4 (100% control)
Soybean; 0.28 kg/h
  post-emergent herbicidal activity index: 1 (25-49% control)
Soybean; 1.12 kg/h
  post-emergent herbicidal activity index: 2 (50-74% control)
Soybean; 5.6 kg/h
  post-emergent herbicidal activity index: 4 (100% control)
Yellow Nutsedge [13]; 5.6 kg/h
  post-emergent herbicidal activity index: 2 (50-74% control)
Yellow Nutsedge [13]; 11.2 kg/h
  post-emergent herbicidal activity index: 4 (100% control)
Crabgrass; 0.28 kg/h
  post-emergent herbicidal activity index: 3 (75-99% control)
Crabgrass; 1.12 kg/h
  post-emergent herbicidal activity index: 3 (75-99% control)
Crabgrass; 5.6 kg/h
  post-emergent herbicidal activity index: 4 (100% control)
Rice; 0.28 kg/h
  post-emergent herbicidal activity index: 1 (25-49% control)
Rice; 1.12 kg/h
  post-emergent herbicidal activity index: 2 (50-74% control)
Rice; 5.6 kg/h
  post-emergent herbicidal activity index: 4 (100% control)
Smartweed [14]; Table I, 5.6 kg/h
  post-emergent herbicidal activity index: 4 (100% control)
Smartweed [14]; Table I, 11.2 kg/h
  post-emergent herbicidal activity index: 4 (100% control)
Smartweed [14]; Table II, 0.28 kg/h
  post-emergent herbicidal activity index: 1 (25-49% control)
Smartweed [14]; Table II, 1.12 kg/h
  post-emergent herbicidal activity index: 3 (75-99% control)
Smartweed [14]; Table II, 5.6 kg/h
  post-emergent herbicidal activity index: 3 (75-99% control)
Barnyardgrass [15]; Table I, 5.6 kg/h
  post-emergent herbicidal activity index: 3 (75-99% control)
Barnyardgrass [15]; Table I, 11.2 kg/h
  post-emergent herbicidal activity index: 3 (75-99% control)
Barnyardgrass [15]; Table II, 0.28 kg/h
  post-emergent herbicidal activity index: 2 (50-74% control)
Barnyardgrass [15]; Table II, 1.12 kg/h
  post-emergent herbicidal activity index: 3 (75-99% control)
Barnyardgrass [15]; Table II, 5.6 kg/h
  post-emergent herbicidal activity index: 3 (75-99% control)
Morningglory [16]; Table I, 5.6 kg/h
  post-emergent herbicidal activity index: 3 (75-99% control)
Morningglory [16]; Table I, 11.2 kg/h
  post-emergent herbicidal activity index: 2 (50-74% control)
Morningglory [16]; Table II, 0.28 kg/h
  post-emergent herbicidal activity index: 2 (50-74% control)
Morningglory [16]; Table II, 1.12 kg/h
  post-emergent herbicidal activity index: 2 (50-74% control)
Morningglory [16]; Table II, 5.6 kg/h
  post-emergent herbicidal activity index: 3 (75-99% control)
Quackgrass [17]; 5.6 kg/h
  post-emergent herbicidal activity index: 2 (50-74% control)
Quackgrass [17]; 11.2 kg/h
  post-emergent herbicidal activity index: 3 (75-99% control)
Johnsongrass [18]; 5.6 kg/h
  post-emergent herbicidal activity index: 1 (25-49% control)
Johnsongrass [18]; 11.2 kg/h
  post-emergent herbicidal activity index: 2 (50-74% control)
Sugar Beet; 0.28 kg/h
  post-emergent herbicidal activity index: 2 (50-74% control)
Sugar Beet; 1.12 kg/h
  post-emergent herbicidal activity index: 4 (100% control)
Sugar Beet; 5.6 kg/h
  post-emergent herbicidal activity index: 4 (100% control)
Sorghum; 0.28 kg/h
  post-emergent herbicidal activity index: 1 (25-49% control)
Sorghum; 1.12 kg/h
  post-emergent herbicidal activity index: 3 (75-99% control)
Sorghum; 5.6 kg/h
  post-emergent herbicidal activity index: 4 (100% control)
Cocklebur [19]; Table I, 5.6 kg/h
  post-emergent herbicidal activity index: 3 (75-99% control)
Cocklebur [19]; Table I, 11.2 kg/h
  post-emergent herbicidal activity index: 3 (75-99% control)
Cocklebur [19]; Table II, 0.28 kg/h
  post-emergent herbicidal activity index: 2 (50-74% control)
Cocklebur [19]; Table II, 1.12 kg/h
  post-emergent herbicidal activity index: 2 (50-74% control)
Cocklebur [19]; Table II, 5.6 kg/h
  post-emergent herbicidal activity index: 3 (75-99% control)
Wheat; 0.28 kg/h
  post-emergent herbicidal activity index: 2 (50-74% control)
Wheat; 1.12 kg/h
  post-emergent herbicidal activity index: 2 (50-74% control)
Wheat; 5.6 kg/h
  post-emergent herbicidal activity index: 4 (100% control)
Hemp Sesbania; 0.28 kg/h
  post-emergent herbicidal activity index: 1 (25-49% control)
Hemp Sesbania; 1.12 kg/h
  post-emergent herbicidal activity index: 2 (50-74% control)
Hemp Sesbania; 5.6 kg/h
  post-emergent herbicidal activity index: 4 (100% control)
Canada Thistle [20]; 5.6 kg/h
  post-emergent herbicidal activity index: 4 (100% control)
Canada Thistle [20]; 11.2 kg/h
  post-emergent herbicidal activity index: 4 (100% control)
Downy Brome [21]; Table I, 5.6 kg/h
  post-emergent herbicidal activity index: 1 (25-49% control)
Downy Brome [21]; Table I, 11.2 kg/h
  post-emergent herbicidal activity index: 3 (75-99% control)
Downy Brome [21]; Table II, 0.28 kg/h
  post-emergent herbicidal activity index: 3 (75-99% control)
Downy Brome [21]; Table II, 1.12 kg/h
  post-emergent herbicidal activity index: 3 (75-99% control)
Downy Brome [21]; Table II, 5.6 kg/h
  post-emergent herbicidal activity index: 4 (100% control)
Wild Buckwheat; 0.28 kg/h
  post-emergent herbicidal activity index: 2 (50-74% control)
Wild Buckwheat; 1.12 kg/h
  post-emergent herbicidal activity index: 2 (50-74% control)
Wild Buckwheat; 5.6 kg/h
  post-emergent herbicidal activity index: 4 (100% control)
Lambsquarters [22]; Table I, 5.6 kg/h
  post-emergent herbicidal activity index: 2 (50-74% control)
Lambsquarters [22]; Table I, 11.2 kg/h
  post-emergent herbicidal activity index: 4 (100% control)
Lambsquarters [22]; Table II, 0.28 kg/h
  post-emergent herbicidal activity index: 1 (25-49% control)
Lambsquarters [22]; Table II, 1.12 kg/h
  post-emergent herbicidal activity index: 3 (75-99% control)
Lambsquarters [22]; Table II, 5.6 kg/h
  post-emergent herbicidal activity index: 4 (100% control)
